The values below come from ChEMBL document CHEMBL2331312, “Dimerized linear mimics of a natural cyclopeptide (TMC-95A) are potent noncovalent inhibitors of the eukaryotic 20S proteasome” (J Med Chem, 2013).

Series [1] has as its target T1, Proteasome Macropain subunit MB1 (Homo sapiens, UniProt P28074).
T1 sequence (P28074 whole entry): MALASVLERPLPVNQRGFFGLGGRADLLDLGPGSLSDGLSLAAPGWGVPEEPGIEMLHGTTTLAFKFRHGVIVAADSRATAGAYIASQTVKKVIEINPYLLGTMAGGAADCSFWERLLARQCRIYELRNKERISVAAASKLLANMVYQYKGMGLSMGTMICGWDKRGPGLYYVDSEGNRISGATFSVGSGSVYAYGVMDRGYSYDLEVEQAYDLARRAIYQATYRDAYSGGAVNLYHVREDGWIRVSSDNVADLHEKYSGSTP
Description: Competitive inhibition of chymotrypsin-like activity of human constitutive 20s proteasome beta-5 subunit using Suc-LLVY-AMC as substrate assessed as inhibition constant for dissociation of enzyme-inhibitor complex incubated for 15 mins prior to substrate addition measured after 45 mins by fluorescence assay

In series [2] the target is T1, Proteasome Macropain subunit MB1. The source holds these as a separate data set.
Description: (§1) Inhibition of chymotrypsin-like activity of human constitutive 20s proteasome beta-5 subunit using Suc-LLVY-AMC as substrate assessed as remaining activity incubated for 15 mins prior to substrate addition measured after 45 mins by fluorescence assay
Series [3] concerns the target T2, Calpain-1 catalytic subunit (Homo sapiens) (UniProt P07384).
T2 sequence (whole entry): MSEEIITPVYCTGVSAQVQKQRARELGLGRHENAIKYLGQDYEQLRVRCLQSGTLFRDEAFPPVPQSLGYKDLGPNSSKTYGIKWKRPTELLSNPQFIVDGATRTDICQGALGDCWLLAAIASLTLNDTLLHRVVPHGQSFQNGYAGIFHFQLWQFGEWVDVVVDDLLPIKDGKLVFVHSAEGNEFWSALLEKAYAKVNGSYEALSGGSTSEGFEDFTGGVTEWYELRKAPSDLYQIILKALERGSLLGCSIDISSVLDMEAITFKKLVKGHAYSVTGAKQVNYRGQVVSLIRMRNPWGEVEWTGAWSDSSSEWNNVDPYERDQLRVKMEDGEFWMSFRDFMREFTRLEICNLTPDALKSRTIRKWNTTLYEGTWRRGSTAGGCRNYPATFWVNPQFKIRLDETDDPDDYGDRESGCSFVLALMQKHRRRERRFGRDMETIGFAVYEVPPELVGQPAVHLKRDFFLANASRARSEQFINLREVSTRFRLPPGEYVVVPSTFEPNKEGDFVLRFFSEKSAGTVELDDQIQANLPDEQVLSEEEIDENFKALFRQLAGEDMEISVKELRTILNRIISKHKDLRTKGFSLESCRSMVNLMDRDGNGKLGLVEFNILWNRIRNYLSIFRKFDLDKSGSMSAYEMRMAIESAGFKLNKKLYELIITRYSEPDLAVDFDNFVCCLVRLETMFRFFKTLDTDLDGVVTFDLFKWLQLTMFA
The series can be described thus: Inhibition of human calpain 1 using Suc-LLVY-AMC as substrate assessed as remaining enzyme activity at 20 uM incubated for 5 mins prior to substrate addition measured for 30 mins by fluorescence assay.

The target in series [4] is T1, Proteasome Macropain subunit MB1. The source holds these as a separate data set.
Description: as §1
The target in another series is T3, Proteasome component C5 (Homo sapiens, UniProt P20618).
T3 sequence (P20618 whole entry): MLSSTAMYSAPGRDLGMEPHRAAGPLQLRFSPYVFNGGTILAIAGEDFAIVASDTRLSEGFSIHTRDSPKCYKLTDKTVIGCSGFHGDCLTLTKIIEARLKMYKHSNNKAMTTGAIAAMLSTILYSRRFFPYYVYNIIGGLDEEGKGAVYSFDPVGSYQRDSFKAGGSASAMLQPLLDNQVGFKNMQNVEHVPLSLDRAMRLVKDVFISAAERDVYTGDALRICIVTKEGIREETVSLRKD

Series [5] has as its target Cathepsin B (Homo sapiens) (UniProt P07858). The series can be described thus: Inhibition of human cathepsin B using Suc-LLVY-AMC as substrate assessed as remaining enzyme activity at 20 uM incubated for 15 mins prior to substrate addition measured for 30 mins by fluorescence assay.
Series [6] has as its target Proteasome Macropain subunit (Homo sapiens, UniProt P49721). The series can be described thus: Inhibition of trypsin-like activity of human constitutive 20s proteasome beta-2 subunit using Boc-LRR-AMC as substrate assessed as remaining activity incubated for 15 mins prior to substrate addition measured after 45 mins by fluorescence assay.
Series [7] addresses T1, Proteasome Macropain subunit MB1. The source holds these as a separate data set.
Description: Inhibition of chymotrypsin-like activity of proteasome beta-5 subunit in HEK293 cells using Suc-LLVY-Glo as substrate incubated for 2 hrs prior to substrate addition measured after 10 mins by cell-based proteasome-Glo beta5 assay
In series [8] the target is T4, Proteasome component C5 (Homo sapiens) (UniProt P20618).
T4 sequence (whole entry): T3 sequence (P20618 whole entry)
The series can be described thus: Inhibition of postacid activity of 20s proteasome beta-1 subunit in HEK293 cells using Z-nLPnLD-Glo as substrate at 10 uM incubated for 2 hrs prior to substrate addition measured after 10 mins by cell-based proteasome-Glo beta1 assay.

The target in series [9] is T1, Proteasome Macropain subunit MB1. The series can be described thus: Mixed type inhibition of chymotrypsin-like activity of human constitutive 20s proteasome beta-5 subunit using Suc-LLVY-AMC as substrate assessed as inhibition constant for dissociation of enzyme-substrate-inhibitor complex incubated for 15 mins prior to substrate addition measured after 45 mins by fluorescence assay.

Series [10] can be described thus: Half life of the compound in RPMI culture medium in presence of 20% fetal calf serum at 37 degC by HPLC analysis. To be noted: cattle, RPMI culture medium with 20% fetal calf serum. The series is classed as physicochemical.
In series [11] the target is T1, Proteasome Macropain subunit MB1. In words: Mixed type inhibition of chymotrypsin-like activity of human constitutive 20s proteasome beta-5 subunit using Suc-LLVY-AMC as substrate assessed as inhibition constant for dissociation of enzyme-inhibitor complex incubated for 15 mins prior to substrate addition measured after 45 mins by fluorescence assay.
In series [12] the target is T4, Proteasome component C5 (Homo sapiens). The series can be described thus: Inhibition of postacid activity of 20s proteasome beta-1 subunit in HEK293 cells using Z-nLPnLD-Glo as substrate at 20 uM incubated for 2 hrs prior to substrate addition measured after 10 mins by cell-based proteasome-Glo beta1 assay.
Series [13] concerns the target T5, Proteasome Macropain subunit PRE2 (Saccharomyces cerevisiae S288c, UniProt P30656).
T5 sequence (P30656 whole entry): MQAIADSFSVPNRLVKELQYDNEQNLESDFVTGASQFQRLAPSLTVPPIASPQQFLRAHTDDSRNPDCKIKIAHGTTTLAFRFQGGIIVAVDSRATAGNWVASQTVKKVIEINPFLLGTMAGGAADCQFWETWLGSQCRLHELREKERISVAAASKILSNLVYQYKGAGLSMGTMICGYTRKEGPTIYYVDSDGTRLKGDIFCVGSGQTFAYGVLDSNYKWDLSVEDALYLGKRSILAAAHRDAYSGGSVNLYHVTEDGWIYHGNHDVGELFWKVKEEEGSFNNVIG
Description: Inhibition of chymotrypsin-like activity of yeast 20S proteasome beta-5 subunit using Suc-LLVY-AMC as substrate measured up to 45 mins by fluorescence assay

Calls of active or inactive are those of the source. The rule behind the calls is not given here.

For orientation: Ki means a measure of affinity in units of concentration, obtained from inhibition or displacement. The term IC50 denotes the concentration that inhibits the measured activity by half. What is called inhibition is the percentage by which the read-out fell short of the control. For orientation: half-life means how long it takes for the measured level to halve.

Sequence of Proteasome Macropain subunit (P49721 whole entry): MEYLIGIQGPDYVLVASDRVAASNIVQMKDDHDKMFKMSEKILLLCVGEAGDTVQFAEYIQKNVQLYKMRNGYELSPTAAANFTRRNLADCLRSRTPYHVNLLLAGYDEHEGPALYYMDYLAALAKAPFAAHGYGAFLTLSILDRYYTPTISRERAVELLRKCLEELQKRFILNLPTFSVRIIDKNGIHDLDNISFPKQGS

As for `C/C=C\NC(=O)[C@H]1NC(=O)[C@H](CC(N)=O)CC(=O)[C@@H](NC(=O)C(=O)[C@@H](C)CC)Cc2ccc(O)c(c2)-c2cccc3c2NC(=O)[C@@]3(O)[C@@H]1O`, the Ki in series [1] was found to be 2.3 nM. In [2], this molecule displayed an IC50 of 5.4 nM.

`COC(=O)CCCCCNC(=O)CCCCCNC(=O)CCCCCNC(=O)CCCCC(=O)OC`: the inhibition result in series [3] and in series [5] was “inactive” throughout. The IC50 result (in series [4]; at Proteasome component C5; in [6]) was “Not Active” throughout.

Consider `C[C@H](NC(=O)[C@H](Cc1ccc(OCc2ccccc2)cc1)NC(=O)CCCCCNC(=O)CCCCCNC(=O)CCCCCNC(=O)CCCCCNC(=O)CCCCC(=O)N[C@@H](Cc1ccc(OCc2ccccc2)cc1)C(=O)N[C@@H](C)C(=O)N[C@@H](C[C@]1(O)C(=O)Nc2ccccc21)C(=O)NCc1ccccc1)C(=O)N[C@@H](C[C@]1(O)C(=O)Nc2ccccc21)C(=O)NCc1ccccc1`, for which the results for the IC50 in [7] and in series [2] were 756 nM and 25.9 nM, respectively. Moreover, the inhibition result in series [3] and in series [5] was “inactive” each time. The molecule further had an inhibition in series [8] of 37%. Further, the Ki in [1] was 10.8 nM.

As for `C[C@H](NC(=O)[C@H](Cc1ccc(OCc2ccccc2)cc1)NC(=O)CCCCCNC(=O)CCCCCNC(=O)CCCCCNC(=O)CCCCC(=O)NCCCCCC(=O)NCCCCCC(=O)NCCCCCC(=O)N[C@@H](Cc1ccc(OCc2ccccc2)cc1)C(=O)N[C@@H](C)C(=O)N[C@@H](C[C@]1(O)C(=O)Nc2ccccc21)C(=O)NCc1ccccc1)C(=O)N[C@@H](C[C@]1(O)C(=O)Nc2ccccc21)C(=O)NCc1ccccc1`, the IC50 is 476 nM in series [7] and 19.1 nM in [2]. Moreover, the inhibition result in series [3] and in series [5] was “inactive” throughout. Besides, in [8], the inhibition worked out at 30%. This molecule gave a Ki in series [1] of 10.6 nM.

As for `COC(=O)CCCCCNC(=O)CCCCCNC(=O)CCCCCNC(=O)CCCCCNC(=O)CCCCCNC(=O)CCCCCNC(=O)OC(C)(C)C`, the inhibition entry in series [3] and in series [5] was “inactive” throughout. Further, the IC50 entry (in series [4]; on Proteasome component C5; in series [6]) was “Not Active” in each case.

Regarding `C[C@H](NC(=O)[C@H](Cc1ccc(OCc2ccccc2)cc1)NC(=O)CCCCCNC(=O)CCCCCNC(=O)CCCCCNC(=O)OC(C)(C)C)C(=O)N[C@@H](C[C@]1(O)C(=O)Nc2ccccc21)C(=O)NCc1ccccc1`, the Ki was found to be 316 nM in series [9] and 101 nM in series [11]. Further, the IC50 in [7] turned out to be 252 nM; in series [2] it was 460 nM. Moreover, the inhibition entry in [3] and in series [5] was “inactive” throughout. In addition, the half-life in series [10] is 19 h.

`C[C@H](NC(=O)[C@H](Cc1ccc(OCc2ccccc2)cc1)NC(=O)CCCCCNC(=O)CCCCCNC(=O)CCCCCNC(=O)CCCCCNC(=O)CCCCCNC(=O)CCCCC(=O)N[C@@H](Cc1ccc(OCc2ccccc2)cc1)C(=O)N[C@@H](C)C(=O)N[C@@H](C[C@]1(O)C(=O)Nc2ccccc21)C(=O)NCc1ccccc1)C(=O)N[C@@H](C[C@]1(O)C(=O)Nc2ccccc21)C(=O)NCc1ccccc1`: the IC50 came out at 472 nM in [7] and 22.7 nM in series [2]. The inhibition result in series [3] and in series [5] was “inactive” each time. In series [8], this molecule gave an inhibition of 25%. In series [1], this molecule returned a Ki of 11.4 nM.

On to `C[C@H](NC(=O)[C@H](Cc1ccc(OCc2ccccc2)cc1)NC(=O)CCCCCNC(=O)CCCCCNC(=O)CCCCCNC(=O)CCCCC(=O)N[C@@H](Cc1ccc(OCc2ccccc2)cc1)C(=O)N[C@@H](C)C(=O)N[C@@H](C[C@]1(O)C(=O)Nc2ccccc21)C(=O)NCc1ccccc1)C(=O)N[C@@H](C[C@]1(O)C(=O)Nc2ccccc21)C(=O)NCc1ccccc1`, for which the IC50 stood at 541 nM in [7] and 25.8 nM in series [2]. The inhibition result in series [3] and in series [5] was “inactive” in each case. The molecule also came in with an inhibition in [12] of 40%. The same molecule yielded a Ki in series [1] of 10.3 nM. Also, the half-life in [10] was 50 h.

`C[C@H](NC(=O)[C@H](Cc1ccc(OCc2ccccc2)cc1)NC(=O)CCCCCNC(=O)CCCCCNC(=O)CCCCCNC(=O)CCCCCNC(=O)CCCCC(=O)NCCCCCC(=O)NCCCCCC(=O)NCCCCCC(=O)NCCCCCC(=O)N[C@@H](Cc1ccc(OCc2ccccc2)cc1)C(=O)N[C@@H](C)C(=O)N[C@@H](C[C@]1(O)C(=O)Nc2ccccc21)C(=O)NCc1ccccc1)C(=O)N[C@@H](C[C@]1(O)C(=O)Nc2ccccc21)C(=O)NCc1ccccc1`: the inhibition entry in series [3] and in series [5] was “inactive” in each case. In [1], this molecule gave a Ki of 6 nM. The molecule also came in with an IC50 in [2] of 20 nM.

In the case of `C[C@H](NC(=O)[C@H](Cc1ccc(OCc2ccccc2)cc1)NC(=O)CCCCCNC(=O)CCCCCNC(=O)CCCCCNC(=O)CCCCCNC(=O)OC(C)(C)C)C(=O)N[C@@H](C[C@]1(O)C(=O)Nc2ccccc21)C(=O)NCc1ccccc1`, the Ki in [9] came out at 200 nM; in series [11] it was 67 nM. Moreover, the inhibition entry in [3] and in series [5] was “inactive” throughout. In series [2], this molecule displayed an IC50 of 707 nM.

`C[C@H](NC(=O)[C@H](Cc1ccc(OCc2ccccc2)cc1)NC(=O)OC(C)(C)C)C(=O)N[C@@H](C[C@]1(O)C(=O)Nc2ccccc21)C(=O)NCc1ccccc1`: the Ki amounted to 5030 nM in series [9] and 2430 nM in [11]. Also, the IC50 in [7] is 7970 nM; in series [2], 3190 nM; in [13], 1500 nM. For the same molecule, the inhibition result in [3] and in [5] was “inactive” throughout. In addition, the half-life in series [10] is 50 h.
